Data: publication PMC3914206

Experiments:
Format in all cases: binding
panel of 442 kinases [1] = target: T1, panel of 442 kinases (Homo sapiens, UniProt P42345); conditions: Compound Concentration 10 µM
T1 construct: purchased KINOMEscan
Excerpt: (§1) We assessed the selectivity of members of this scaffold using the KINOMEscan methodology across a near comprehensive panel of 442 kinases [[18,27]].

panel of 442 kinases [2] = target: T2, panel of 442 kinases (Homo sapiens, UniProt Q15569); conditions: kinase TESK1; compound concentration 10 µM
T2 construct: purchased KINOMEscan
Excerpt: as §1

panel of 442 kinases [3] = target: T3, panel of 442 kinases (Homo sapiens, UniProt Q9Y4K4); conditions: Compound Concentration 10 µM
T3 construct: purchased KINOMEscan
Excerpt: as §1

T3 sequence (Q9Y4K4 whole entry): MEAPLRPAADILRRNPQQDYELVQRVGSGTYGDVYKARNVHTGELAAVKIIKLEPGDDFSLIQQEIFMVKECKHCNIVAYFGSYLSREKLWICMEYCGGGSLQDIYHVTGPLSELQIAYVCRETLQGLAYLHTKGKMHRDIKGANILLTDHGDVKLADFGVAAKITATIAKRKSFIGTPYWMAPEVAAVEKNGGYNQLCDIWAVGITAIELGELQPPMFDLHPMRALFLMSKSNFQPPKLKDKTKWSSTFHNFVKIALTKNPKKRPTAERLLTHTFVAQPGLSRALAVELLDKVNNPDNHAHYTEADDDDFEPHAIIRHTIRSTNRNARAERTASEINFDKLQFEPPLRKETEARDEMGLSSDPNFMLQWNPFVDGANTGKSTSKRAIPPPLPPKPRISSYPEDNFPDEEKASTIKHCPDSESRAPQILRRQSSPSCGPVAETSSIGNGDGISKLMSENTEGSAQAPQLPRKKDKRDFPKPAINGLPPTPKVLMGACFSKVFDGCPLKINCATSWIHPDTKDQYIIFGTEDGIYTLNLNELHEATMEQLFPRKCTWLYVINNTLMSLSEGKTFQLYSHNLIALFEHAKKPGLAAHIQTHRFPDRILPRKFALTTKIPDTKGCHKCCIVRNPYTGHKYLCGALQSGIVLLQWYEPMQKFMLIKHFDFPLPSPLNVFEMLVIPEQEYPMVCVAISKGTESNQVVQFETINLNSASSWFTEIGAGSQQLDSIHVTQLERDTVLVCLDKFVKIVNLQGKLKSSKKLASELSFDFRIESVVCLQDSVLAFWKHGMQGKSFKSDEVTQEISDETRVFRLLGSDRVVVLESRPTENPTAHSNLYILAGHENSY
T2 sequence (Q15569 whole entry): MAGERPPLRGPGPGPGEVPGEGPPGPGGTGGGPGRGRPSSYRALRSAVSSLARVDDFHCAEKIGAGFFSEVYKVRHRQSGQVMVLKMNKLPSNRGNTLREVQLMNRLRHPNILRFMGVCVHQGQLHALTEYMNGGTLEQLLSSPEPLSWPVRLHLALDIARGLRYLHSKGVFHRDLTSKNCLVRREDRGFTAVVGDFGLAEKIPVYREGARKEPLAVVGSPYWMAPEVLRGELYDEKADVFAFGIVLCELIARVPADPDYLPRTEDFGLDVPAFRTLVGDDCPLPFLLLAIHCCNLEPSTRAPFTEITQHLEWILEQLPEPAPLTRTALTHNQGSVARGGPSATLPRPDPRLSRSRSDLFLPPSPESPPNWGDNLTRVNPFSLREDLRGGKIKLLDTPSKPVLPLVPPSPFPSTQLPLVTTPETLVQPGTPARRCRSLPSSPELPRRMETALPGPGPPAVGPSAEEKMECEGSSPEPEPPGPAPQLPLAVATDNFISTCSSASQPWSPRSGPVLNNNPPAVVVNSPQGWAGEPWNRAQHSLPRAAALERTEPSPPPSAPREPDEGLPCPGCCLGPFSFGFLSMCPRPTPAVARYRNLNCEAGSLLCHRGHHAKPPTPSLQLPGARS

COc1cc(C(=O)N2CCC(N3CCN(C)CC3)CC2)ccc1Nc1ncc2c(n1)N(C1CCCC1)c1ccccc1C(=O)N2C [Compound 25, 11-cyclopentyl-2-((2-methoxy-4-(4-(4-methylpiperazin-1-yl)piperidine-1-carbonyl)phenyl)amino)-5-methyl-5H-benzo[e]pyrimido[5,4-b][1,4]diazepin-6(11H)-one]
KINOMEscan: MTOR (panel of 442 kinases [1]): 100 | % Ctrl, TESK1 (panel of 442 kinases [2]): 100 % Ctrl | KINOMEscan: MAP4K5 (panel of 442 kinases [3]): 96

CCOc1cc(C(=O)N2CCC(N3CCN(C)CC3)CC2)ccc1Nc1ncc2c(n1)N(C1CCCC1)c1ccccc1C(=O)N2C [Compound 26]
KINOMEscan: MTOR (panel of 442 kinases [1]): 100 | % Ctrl, TESK1 (panel of 442 kinases [2]): 100 % Ctrl | KINOMEscan: MAP4K5 (panel of 442 kinases [3]): 95

COc1cc(C(=O)N2CCC(N3CCN(C)CC3)CC2)ccc1Nc1ncc2c(n1)N1CCc3cccc(c31)C(=O)N2C [Compound 24]
% Ctrl, TESK1 (panel of 442 kinases [2]): 84 % Ctrl | KINOMEscan: MAP4K5 (panel of 442 kinases [3]): 72

COc1cc(C(=O)N2CCC(N3CCN(C)CC3)CC2)ccc1Nc1ncc2c(n1)N(C)c1ccccc1C(=O)N2C [15 (LRRK2-IN-1)]
KINOMEscan: MTOR (panel of 442 kinases [1]): 97 | % Ctrl, TESK1 (panel of 442 kinases [2]): 82 % Ctrl | KINOMEscan: MAP4K5 (panel of 442 kinases [3]): 100
